# Test results as given in patent US20250257064A1, “TRIFLUOROMETHYL-SUBSTITUTED SULFONAMIDE AS BCL-2-SELECTIVE INHIBITOR” (Chia Tai Tianqing Pharmaceutical Group Co., Ltd., priority 2018, published 2025).
# Assays:
# [1] = In vitro stability in rat liver microsomes; type: in vitro ADME; settings: 1 μM
# Experimental: (§1) Experimental Example 3: In Vitro Stability in Liver Microsome
# (§2) 300 μL of the final incubation system contains 30 μL of liver microsomes (protein concentration: 5 mg/mL), 30 μL of NADPH+MgCl2, 3 μL of the test compound (in acetonitrile), and 237 μL of PBS buffer (pH 7.4), wherein the proportion of the organic solvent (acetonitrile) is 1% (volume ratio). Two duplicate samples were prepared for each specie (mouse, rat and human), and each sample was 0.3 mL. Each tube which was added with 270 μL of a mixed solution of substrate and enzyme, and NADPH, after being pre-incubated at 37° C. for 5 min, was added with 30 μL of NADPH+MgCl2 and mixed. Then 50 μL of the mixture was taken at 0 min, 15 min, 30 min and 60 min, and added with 300 μL of glacial acetonitrile containing an internal standard to terminate the reaction.
# (§3) 50 μL of the incubated sample was added with 300 μL of glacial acetonitrile containing an internal standard (20 ng/mL diazepam) for precipitation, vortexed for 5 min, and centrifuged (13,000 rpm, 20° C.) for 10 min. 70 μL of supernatant was taken and diluted with 70 μL of ultrapure water. After being mixed well, 1 μL of the resulting sample was injected for analysis.
# [2] = tested on: human platelet Caspase-3 activity; experiment: Human platelet toxicity experiment (Caspase-3 activity assay); type: cell-based; settings: 90 min, data normalized, reference ABT-199
# Experimental: Experimental Example 6: Human Platelet Toxicity Experiment (Caspase-3 Activity Assay)
# 10 mL of human whole blood was collected using a heparin sodium anticoagulation tube, mixed well by turning upside down, and centrifuged at 90 g for 10 min. The supernatant was collected and centrifuged at 1950 g for 10 min. The supernatant was discarded, and the residue was resuspended in 4 mL of PBS, and centrifuged at 1190 g for 5 min, and the procedure was repeated once. The supernatant was discarded, and the platelets were resuspended in PBS and adjusted to the density of 2-3×10^8 cells/mL. Cells were seeded into a 96-well plate at a density of 2-3×10^7 cells/mL and at 100 μL/well. 50 μL of control buffer was added to each negative control well, and 50 μL of compound at a corresponding concentration was added to each compound well, so that the final concentration of the compound was 2.5 μM, 2 μM, 1 μM or 0.5 μM, followed by incubation in an incubator at 37° C. for 90 min. The liquids in the 96-well plate were transferred to 1.5 mL centrifuge tubes, respectively. The tubes were centrifuged at 4° C. and 6000 g for 5 min, and placed on ice for later use after the supernatant was discarded. 5× lysis buffer was diluted into 1× lysis buffer with water in the kit, and protease inhibitor cocktail was added at a 1:200 ratio to prepare a lysis mixture for later use. 40 μL of lysis mixture was added to each centrifuge tube, and the platelets at the bottom were resuspended using a pipette. The suspension was lysed on ice for 15-20 min and centrifuged at 4° C. and 14,000 g for 10 min. The sample was sub-packaged for later use. 10× assay buffer was diluted into 1× assay buffer with water in the kit, and substrate Ac-DEVD-AMC was added at a 1:600 ratio to prepare a reaction mixture. 5 μL of assay buffer and 40 μL of reaction mixture were added to each blank control well. 5 μL of control platelet lysate and 40 μL of reaction mixture were added to each negative control well. 5 μL of platelet lysate and 40 μL of reaction mixture were added to each compound well. In this procedure, 40 μL of reaction mixture was added at last. The resulting mixture was mixed gently, and the plate was read by a PE Envision multi-functional microplate reader (excitation: 360 nm, emission: 460 nm) once every 10 min for 6 times. Caspase-3 activity was determined based on the intensity of the released AMC fluorescence, that is the slope of the fitted line to which each well corresponds represents Caspase activity (all data were normalized and the reference was ABT-199).
# BCL-XL/BAK = target: T1, BCL-XL/BAK (Homo sapiens, UniProt Q07817); experiment: Screening on inhibitory activity for BCL-XL/BAK binding (Cisbio HTRF kit)
# T1 construct: purchased Cisbio
# Procedure, shortened: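 Tag1-BCL-XL and Tag2-BAK (2 nM and 80 nM before mixing) were combined with compounds at final 2000–0.488 nM (4-fold, 7 points, duplicates) for 15 min at 25° C. Eu3+ anti-Tag1 and XL665 anti-Tag2 were then added for ≥2 h at 25° C. HTRF (620/665 nm) gave IC50 by four-parameter fit.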
# [3] = In vitro stability in human liver microsomes; type: in vitro ADME; settings: 1 μM
# Experimental: as §1, §2, §3
# BCL-2/BAK = target: T2, BCL-2/BAK (Homo sapiens, UniProt P10415); experiment: Screening on inhibitory activity for BCL-2/BAK binding (Cisbio HTRF kit)
# T2 construct: purchased Cisbio
# Procedure, shortened: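 HTRF competition assay: Tag1-BCL-2 and Tag2-BAK working dilutions were 5 nM and 120 nM. Compound (200–0.0488 nM final, 4-fold, 7 points, duplicates) was incubated with the proteins for 15 min at 25 °C, then with Eu-cryptate/XL665 antibodies for ≥2 h at 25 °C. IC50 was derived from a four-parameter fit.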
# RS4;11 cells = experiment: Inhibitory effect on proliferation of RS4;11 cells (CCK-8); type: cell-based, human; settings: Homo sapiens, RS4-11, 72 h
# Procedure, shortened: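 RS4;11 cells were seeded at 1×10^5 cells/mL in RPMI with 5% FBS and incubated 24 h at 37° C, 5% CO2 before compound addition in duplicate. Inhibition was calculated against untreated and blank controls. IC50 came from a four-parameter fit of log concentration versus inhibition.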
# [4] = In vitro stability in mouse liver microsomes; type: in vitro ADME; settings: 1 μM
# Experimental: as §1, §2, §3
# T1 sequence (Q07817 whole entry, species assumed): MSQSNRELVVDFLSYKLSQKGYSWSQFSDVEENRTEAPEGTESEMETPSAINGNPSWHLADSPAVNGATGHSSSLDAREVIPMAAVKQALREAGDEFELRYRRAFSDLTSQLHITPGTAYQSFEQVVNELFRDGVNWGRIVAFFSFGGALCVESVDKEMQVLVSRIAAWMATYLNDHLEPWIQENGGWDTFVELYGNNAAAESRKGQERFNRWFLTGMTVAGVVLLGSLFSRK
# T2 sequence (P10415 whole entry, species assumed): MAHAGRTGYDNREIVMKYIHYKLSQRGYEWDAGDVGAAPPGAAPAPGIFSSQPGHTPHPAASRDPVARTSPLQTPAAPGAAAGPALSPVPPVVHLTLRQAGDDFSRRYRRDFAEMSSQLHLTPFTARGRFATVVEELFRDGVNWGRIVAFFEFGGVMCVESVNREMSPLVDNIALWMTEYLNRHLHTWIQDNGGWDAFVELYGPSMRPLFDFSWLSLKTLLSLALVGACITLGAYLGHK
Rat Residual content after 60 min (%) [1] [%],IC50 (BCL-XL/BAK) [nM],Human Residual content after 60 min (%) [3] [%],IC50 (BCL-2/BAK) [nM],IC50 (RS4;11 cells) [nM],Mouse Residual content after 60 min (%) [4] [%],Structure (SMILES),"human platelet Caspase-3 activity, Slope ([2]; compound concentration 0.5 μM)","human platelet Caspase-3 activity, Slope ([2]; compound concentration 2 μM)","human platelet Caspase-3 activity, Slope ([2]; compound concentration 1 μM)"
80.2,113,91.3,1.4,1.7,93.4,"CC1(C)CCC(CN2CCN(c3ccc(C(=O)NS(=O)(=O)c4ccc(NCC5CN(S(C)(=O)=O)CCO5)c([N+](=O)[O-])c4)c(Oc4cnc5[nH]ccc5c4)c3)CC2)=C(c2ccc(C(F)(F)F)cc2Cl)C1 (centres unmarked) [Compound 12-1, 4-(4-{[2-(2-chloro-4-trifluoromethylphenyl)-4,4-dimethylcyclohex-1-enyl]methyl}-piperazin-1-yl)-N-({3-nitro-4-[((4-methylsulfonylmorpholin-2-yl)methyl)amino]phenyl}sulfonyl)-2-(1H-pyrrolo[2,3-b]pyridin-5-yloxy)-benzamide]",0.27,0.33,
66.3,140,67.4,1.6,2.5,62.9,COCC(=O)N1CCO[C@H](CNc2ccc(S(=O)(=O)NC(=O)c3ccc(N4CCN(CC5=C(c6ccc(C(F)(F)F)cc6Cl)CC(C)(C)CC5)CC4)cc3Oc3cnc4[nH]ccc4c3)cc2[N+](=O)[O-])C1 [Compound 11-1],0.42,0.57,
61.2,1970,65.9,5.7,2.4,65.3,"CC1(C)CCC(CN2CCN(c3ccc(C(=O)NS(=O)(=O)c4ccc(NCC5CCOCC5)c([N+](=O)[O-])c4)c(Oc4cnc5[nH]ccc5c4)c3)CC2)=C(c2ccc(C(F)(F)F)c(F)c2)C1 [Compound 6-1, 4-(4-{[2-(3-fluoro-4-trifluoromethylphenyl)-4,4-dimethylcyclohex-1-enyl]methyl}-piperazin-1-yl)-N-({3-nitro-4-[(tetrahydro-2H-pyran-4-ylmethyl)amino]phenyl}sulfonyl)-2-(1H-pyrrolo[2,3-b]pyridin-5-yloxy)-benzamide]",,,0.45
